For data set [1] the following is noted: male, Sprague Dawley, rat, in vivo, 5 mg/kg.
Method: (§1) The combo dose was prepared by mixing both by 1:1 to yield a concentration of 5 mg/mL for each compound (pH˜6) for intravenous and oral administration. The obtained solution was clear and colourless.
(§2) Male Sprague Dawley rats (body weight: 170 g to 220 g) were used in this study. Before the pharmacokinetic studies, animals were randomly assigned to the treatment groups.
(§3) The plasma samples and the dose formulation were stored at −20° C. until bioanalysis.
(§4) Plasma samples (0.1 mL) were transferred to Eppendorff tube, then 20 μL methanol, and 300 μL IS solution (50 ng/mL) were added to it. After Vortexing for 1 min and centrifuging for 5 min at 15,000 rpm, 5 μL of supernatant was injected into LC/MS/MS.
(§5) The concentrations in plasma below the limit of quantitation (LOQ=5 ng/mL) were designated as zero. The pharmacokinetic data analysis was performed using noncompartmental analysis modules in WinNonlin2.0.
A short description of another data set: in vivo. Conditions: male, Sprague Dawley, rat, 5 mg/kg.
Data set [2] concerns mtDNA-encoded protein synthesis. Put plainly: Mitochondria Toxicity Study (Complex IV/Frataxin ratio in HepG2 cells). Conditions: conclusion in words.

The structures appear in SMILES notation. Where two headings read alike, the source gives them in different places.
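Wherever Plasma Concentration Mean is given: drug levels in rat plasma quantified by LC/MS/MS after a combined two-compound formulation, quantitation limit 5 ng/mL with lower values set to zero, parameters from noncompartmental analysis.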
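Wherever Plasma Concentration is given: drug levels in rat plasma quantified by LC/MS/MS after a combined two-compound formulation, quantitation limit 5 ng/mL with lower values set to zero, parameters from noncompartmental analysis.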
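Wherever Vd is given: drug levels in rat plasma quantified by LC/MS/MS after a combined two-compound formulation, quantitation limit 5 ng/mL with lower values set to zero, parameters from noncompartmental analysis.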
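Wherever volume of distribution at terminal phase as % of total body water is given: drug levels in rat plasma quantified by LC/MS/MS after a combined two-compound formulation, quantitation limit 5 ng/mL with lower values set to zero, parameters from noncompartmental analysis.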

Method for in vivo: as §1, §2, §3, §4, §5

On to `[2H]C1([2H])CN(c2ccc(N3C[C@H](CNC(C)=O)OC3=O)cc2F)CC([2H])([2H])O1` [compound 10, (S)—N-((3-(3-Fluoro-4-(2,2,6,6-d4-morpholino)phenyl)-2-oxooxazolidin-5-yl)methyl)acetamide], for which the “volume of distribution at terminal phase as % of total body water” value in data set [1] (iv) was 113.43%. In data set [1] (po, 12 hr), the “Plasma Concentration” value worked out at 0.00 ng/mL. This compound displayed a concentration at 10 hr in “in vivo” (iv) of 0 ng/mL. The compound also showed a concentration at 12 hr in “in vivo” (po) of 0 ng/mL. Besides, the mitochondria toxicity entry in data set [2] is reported as “comparable to that of linezolid”.
Usually Vd stands for the apparent volume that relates the amount in the body to the concentration in plasma or blood. High values mean wide distribution into tissue, low ones little distribution into tissue. As a reminder, the clearance is the volume of plasma or blood freed of the substance per unit of time. As a reminder, the AUC(0-inf) is the area under the concentration-time curve extrapolated to infinity. A low value points to low exposure. As a reminder, the Cmax is the maximum level reached in the sampled fluid or tissue. Regarding `CC(=O)NC[C@H]1CN(c2ccc(N3CCOCC3)c(F)c2)C(=O)O1` [linezolid], the “volume of distribution at terminal phase as % of total body water” value in data set [1] (iv) was determined as 131.34%. Also, the “Plasma Concentration Mean” value is 4607.18 ng/mL in data set [1] (iv, 0.25 hr); 3776.24 ng/mL in data set [1] (iv, 0.5 hr); 2796.88 ng/mL in data set [1] (iv, 1 hr); 1436.16 ng/mL in data set [1] (iv, 2 hr); 320.08 ng/mL in data set [1] (iv, 4 hr); 63.05 ng/mL in data set [1] (iv, 6 hr). The “Plasma Concentration Mean” value in data set [1] (iv, 8 hr) turned out to be 19.45 ng/mL; in data set [1] (iv, 10 hr) it was 6.33 ng/mL; in data set [1] (po, 0.25 hr), 2152.89 ng/mL; in data set [1] (po, 0.5 hr), 2180.60 ng/mL; in data set [1] (po, 1 hr), 1892.82 ng/mL; in data set [1] (po, 2 hr), 1337.56 ng/mL. Besides, the “Plasma Concentration Mean” value was 612.50 ng/mL in data set [1] (po, 4 hr); 224.99 ng/mL in data set [1] (po, 6 hr); 71.33 ng/mL in data set [1] (po, 8 hr); 19.92 ng/mL in data set [1] (po, 10 hr); 1.72 ng/mL in data set [1] (po, 12 hr). The “Plasma Concentration” value amounted to 0 ng/mL in data set [1] (iv, 12 hr); 0 ng/mL in data set [1] (iv, 24 hr); 0.00 ng/mL in data set [1] (po, 24 hr). The same compound gave a Vd in “in vivo” (iv) of 0.76 L/kg. In “in vivo” (iv), this compound had a clearance of 9.17 mL/min/kg. The concentration at 12 hr in the data set “in vivo” (iv) and in “in vivo” (po) was 0 ng/mL throughout. For the same compound, the concentration at 24 hr in the data set “in vivo” (iv) and in the data set “in vivo” (po) was 0 ng/mL throughout. The same compound gave an AUC(0-inf) in “in vivo” (po) of 6940 ng·h/mL. This compound had a Cmax in “in vivo” (po) of 2370 ng/mL. Also, the concentration at 10 hr in “in vivo” (po) is 0 ng/mL.

Values taken from patent publication US9453009B2, “Synthesis of deuterated morpholine derivatives” (Concert Pharmaceuticals, Inc., priority 2008, dated 2016).
